{"source": "patent US4201784A", "about": "“Substituted 2-[2'-(5\"-nitrofuryl-2\")vinyl-and 4'-(5\"-nitrofuryl-2\"-1,3-butadieryl]quinoline-4-carboxylic acid amides and salts thereof” (Institut Organicheskogo Sinteza Akademii Nauk Latviiskoi SSR, priority 1977, dated 1980)", "key": {"[1]": {"system": "sarcoma 37", "test": "Antitumor activity, life prolongation, sarcoma 37", "assay_type": "in vivo, mice", "protocol": "(§1) Apart from the tests on Ehrlich ascitic tumor, giniquine was studied on twelve more inoculated tumors. Seven tumors (melanoma B16, sarcoma AK, large intestine carcinoma acatol-1, sarcoma 180, adenocarcinoma 755, Lewis lung carcinoma and sarcoma 37) were inoculated subcutaneously with 50 mg of tumoral cells per mouse. Four tumors (lymphatic leukemies L 5178, L 5178Y, L 1210 and P-388) were inoculated intraperitoneally with 10^6 cells per mouse. One tumor (La, hemocytoblastosis) was inoculated intraperitoneally by injecting 50 mg of cell suspension of spleen and liver of mice suffering La hemocytoblastosis, per mouse. Giniquine was injected intraperitoneally five times for seven days: 1,2,3,4,7 days or 3,4,5,6,7 days after the implantation of tumor. The rate of deceleration of the tumor growth was established 14 days after the ultimate injection of giniquine; life of test animals was recorded for 60 days."}, "[2]": {"system": "acatol-1", "test": "Antitumor activity, large intestine adenocarcinoma acatol-1", "assay_type": "in vivo, mice", "protocol": "as §1"}, "[3]": {"system": "La hemocytoblastosis", "test": "Antitumor activity, La hemocytoblastosis", "assay_type": "in vivo, mice", "protocol": "as §1"}, "[4]": {"system": "Lewis lung carcinoma", "test": "Antitumor / antimetastatic activity, Lewis lung carcinoma", "assay_type": "in vivo, mice", "protocol": "as §1"}, "[5]": {"system": "lymphatic leukemia P-388", "test": "Antitumor activity, lymphatic leukemia P-388", "assay_type": "in vivo, mice", "protocol": "as §1"}, "[6]": {"test": "LD50 / toxicity, mice with 7-days Ehrlich ascitic tumor", "assay_type": "in vivo", "conditions": "for LD50: mouse, in vivo", "description": "It should be noted that with a single intraperitoneal injection of the\nWith peroral administration, toxicity of giniquine is 4-5 times lower."}, "[7]": {"test": "Biological availability, ascites of mice with Ehrlich ascitic carcinoma", "assay_type": "in vivo", "protocol": "The biological availability of giniquine was studied on common white male rats with a mass of 150-200 g and common white male mice with a mass of 25-30 g. The test began seven days after Ehrlich ascitic carcinoma was inoculated to the animals.\nGiniquine was injected intraperitoneally in 100 mg/kg doses, using distilled water as a solvent. The animals were slaughtered at preset time intervals (5,15,30 and 60 minutes) and a biological material (blood and liver for rats and ascites for mice) was taken for analysis. To separate ascitic fluid from the tumor cells, ascites was centrifuged at 2000 r.p.m. for 10 minutes. The precipitate was washed with a mixture of physiological solution and heparin and was again centrifuged under the same conditions, 20% homogenates in distilled water were prepared from ascitic cells.\nGiniquine was extracted from the biological material with chloroform.\nThe extraction procedure comprised the following stages: 0.1 ml of ethyl alcohol were added to 1 ml of tested sample and the solution was thoroughly mixed with 0.5 ml of a saturated potassium carbonate solution, then 4 ml of chloroform was added. Closed test tubes were vigorously shaken on a rocker for one hour. After the shaking, the samples were centrifuged at 5000 r.p.m. for ten minutes. The chloroform layer was used for analysis. Daylight was avoided.\nConcentration of the preparation in biological samples was determined by spectrophotometry at 400 nm using molar absorption factor (ε0.10^-3 =36.04).\nThe results were expressed in μg/ml of sample. Minimum sensitivity of the method was 1.1 μg/ml."}, "[8]": {"system": "Lungs", "test": "In vivo biosynthesis of DNA, RNA and protein in lungs", "design": "species or system mice", "conditions": "24 hours, intraperitoneal 28 mg/kg", "protocol": "(§2) The influence of giniquine on biosynthetic processes in the in vivo tests was studied on common white mice of a mass of 25-35 g with Ehrlich ascitic tumor.\nThe mice were divided into two groups. The animals in the first group were given a single injection of the preparation in differing doses, and the animals in the second group were treated with distilled water. Three series of experiments were conducted. In the first series of tests (16 mice) the preparation was injected in a dose of 100 mg/kg ([…] dose), and the animals were decapitated one hour after the injection; in the second test series (16 mice) the animals were slaughtered 3 hours after the injection with other conditions being the same. In the third test series (35 mice) the influence of giniquine on plastic metabolism in tumor cells and normal tissues was studied 24 hours after the injection of a 0.33% solution of the preparation in a dose of 28 mg/kg (therapeutical dose).\nLabeled precursors of nucleic acids and protein were injected intraperitoneally one hour before the slaughter of the animals (50 μc/100 g). Ascitic fluid, as well as liver and spleen, mucous membrane of small intestine, brain, kidneys and lungs were taken for analysis. 10% suspension was prepared from tumor cells, and 10% homogenates were prepared from tissues in a physiological solution.\n(§3) Tumor cells and tissue homogenates for precipitation of nucleic acids were treated with 57% perchloric acid (10:1). […] Radioactivity of DNA and RNA fractions was measured by means of a liquid scintillation counter. The quantity of DNA and RNA was determined by spectrophotometry: the quantity of DNA was determined with diphenylamine, and RNA- with orcin.\n(§4) To prepare protein hydrolysate, the suspension of tumoral cells and homogenates of normal tissues were treated with cool 10% trichloracetic acid (1:4), with subsequent centrifuging at 2000 g for ten minutes. […] The radioactivity was measured by means of a liquid scintillation counter. Protein was quantitatively determined by spectrophotometry using a microbiuret reaction."}, "[9]": {"test": "Germicidal activity"}, "[10]": {"system": "wound healing processes", "test": "Influence on wound healing processes"}, "[11]": {"system": "normal tissues (mucous membrane of small intestine, liver, spleen, brain, kidneys, lungs)", "test": "In vivo biosynthesis of macromolecules in normal tissues", "design": "species or system mice", "conditions": "24 hours, 28 mg/kg", "protocol": "as §2\nThe mice were divided into two groups. The animals in the first group were given a single injection of the preparation in differing doses, and the animals in the second group were treated with distilled water. Three series of experiments were conducted. […]\nas §3, §4"}, "[12]": {"conditions": "BALB/c female mice, intraperitoneal, days 3,4,5,6,7, optim. daily dose 10.0 mg/kg"}}, "note": "“Also recorded” adds a separate entry of the source.", "data": [{"compound": "CCN(CC)CCCC(C)NC(=O)c1cc(C=Cc2ccc([N+](=O)[O-])o2)nc2ccccc12", "note": "(stereo not drawn) [giniquine, 2-[2'-(5\"-nitrofuryl-2\")vinyl]quinoline-4-carboxylic acid (α-methyl-δ-diethylaminobutyl)amide triphosphate]", "values": [{"measurement": "Max. life prolong.", "setting": "[1]; common female mice, intraperitoneal, days 1,2,3,4,7, daily doses 6.0-28.0 mg/kg, optimum daily dose 0", "result": 0, "unit": "%"}, {"measurement": "antiblastic activity / sensitivity (in words)", "setting": "[1]; sarcoma 37", "result": "practically insensitive"}, {"measurement": "Deceleration of tumor growth", "setting": "[2]; [12]", "result": 38, "unit": "%"}, {"measurement": "Max. prolongation of life", "setting": "[2]; [12]", "result": 25, "unit": "%"}, {"measurement": "antitumor effect / sensitivity (in words)", "setting": "[2]; acatol-1", "result": "slight antitumor effect"}, {"measurement": "Max. life prolong.", "setting": "[3]; C57 BL/6Y female mice, intraperitoneal, days 1,2,3,4,7, optimum daily dose 10.0 mg/kg", "result": 5, "unit": "%"}, {"measurement": "antitumor effect / sensitivity (in words)", "setting": "[3]; La hemocytoblastosis", "result": "practically insensitive"}, {"measurement": "Max. life prolong.", "setting": "[4]; BDF1 female mice, intraperitoneal, days 1,2,3,4,7, optimum daily dose 6.0 mg/kg", "result": 15, "unit": "%"}, {"measurement": "antimetastatic activity / sensitivity (in words)", "setting": "[4]; Lewis lung carcinoma", "result": "practically insensitive"}, {"measurement": "sensitivity (in words)", "setting": "[5]; P-388", "result": "practically insensitive"}, {"measurement": "Max. life prolong.", "setting": "[5]; printed B-388, BDF1 female mice, intraperitoneal, days 1,2,3,4,7, optimum daily dose 10.0 mg/kg", "result": 12, "unit": "%"}, {"measurement": "dependence of mice sensitivity on sex", "setting": "[6]; Table 4", "result": "does not depend on the sex of test mice"}, {"measurement": "LD50", "setting": "[6]; ip, intraperitoneal, single injection, female", "result": 99, "unit": "mg/kg"}, {"measurement": "LD50", "setting": "[6]; po, peroral, single administration, female", "result": 360, "unit": "mg/kg"}, {"measurement": "LD50", "setting": "[6]; po, peroral, single administration, male", "result": 500, "unit": "mg/kg"}, {"measurement": "toxicity, times lower", "setting": "[6]; peroral administration", "result": "4-5 times lower"}, {"measurement": "toxicity, relative", "setting": "[6]; single intraperitoneal injection, 7 days after implantation of Ehrlich ascitic tumor", "result": "three times lower"}, {"measurement": "concentration in tumoral cells versus ascitic fluid (in words)", "setting": "[7]; 60 minutes", "result": "also greater than that in ascitic fluid"}, {"measurement": "time of maximum concentration in ascitic cells", "setting": "[7]; intraperitoneal 100 mg/kg", "result": "five minutes"}, {"measurement": "concentration in ascitic cells versus ascitic fluid", "setting": "[7]; intraperitoneal 100 mg/kg, five minutes", "result": "four times greater"}, {"measurement": "accumulation (in words)", "setting": "[7]; intraperitoneal injection", "result": "mainly accumulates in ascitic cells"}, {"measurement": "Cmax at 5 min", "setting": "[7]; mouse, ascitic cells, ip, intraperitoneal 100 mg/kg, five minutes, read-out: maximum concentration in ascitic cells", "result": 40000, "unit": "ng/mL"}, {"measurement": "concentration at 5 min", "setting": "[7]; mouse, ascitic fluid, ip, intraperitoneal 100 mg/kg, five minutes", "result": 10000, "unit": "ng/mL"}, {"measurement": "Incorporation of specific precursors, DNA", "setting": "[8]", "result": "255.0 % of control"}, {"measurement": "Incorporation of specific precursors, Protein", "setting": "[8]", "result": "102.0 % of control"}, {"measurement": "Incorporation of specific precursors, RNA", "setting": "[8]", "result": "124.0 % of control"}, {"measurement": "germicidal activity", "setting": "[9]", "result": "exhibits a germicidal activity; also recorded: combines in itself both actions"}, {"measurement": "inhibiting influence on wound healing processes", "setting": "[10]", "result": "absence of an inhibiting influences on wound healing processes"}, {"measurement": "biosynthesis processes in normal tissues (in words)", "setting": "[11]", "result": "a stimulation of biosynthesis processes"}]}]}
